{"source": "patent US20090214682A1", "about": "“Composition and methods for weight loss in a subject” (priority 2008, published 2009)", "origin": "cited, not measured here", "key": {"[1]": {"conditions": "rats"}, "[2]": {"assay": "not given", "remark": "listed apart in the source"}, "[3]": {"conditions": "obese women"}, "[4]": {"conditions": "rats, high fat diet, 12 weeks"}, "[5]": {"conditions": "vs placebo"}, "[6]": {"assay": "not given", "remark": "listed apart in the source"}, "[7]": {"conditions": "8 weeks, overweight subjects, vs placebo"}, "[8]": {"assay": "not given", "remark": "listed apart in the source"}}, "note": "Where two headings read alike, the source gives them in different places."}
{"compound": "[Cr]", "note": "[Chromium]", "values": [{"measurement": "body fat", "setting": "combined with exercise", "result": "reduce body fat"}, {"measurement": "lean mass", "setting": "combined with exercise", "result": "increase lean mass"}, {"measurement": "HDL cholesterol", "setting": "human, in vivo", "result": "increase HDL"}]}
{"compound": "O=C(O)CC(O)(C(=O)O)C(O)C(=O)O", "note": "(stereo not shown) [HCA, 1,2-dihydroxypropane-1,2,3-tricarboxylic acid]", "values": [{"measurement": "appetite", "setting": "[1]", "result": "repress appetite"}, {"measurement": "fatty acid synthesis", "setting": "[1]", "result": "inhibit fatty acid synthesis"}, {"measurement": "caloric intake", "setting": "[2]; clinical studies", "result": "reduction in caloric intake"}, {"measurement": "blood cholesterol profile", "setting": "[2]; daily, moderate exercise, 8 weeks", "result": "improved blood cholesterol profile"}, {"measurement": "weight loss", "setting": "[2]; daily, moderate exercise, 8 weeks, vs placebo", "result": "increased weight loss"}, {"measurement": "serotonin levels", "setting": "[2]; human, in vivo", "result": "significantly increased"}, {"measurement": "fat oxidation during exercise", "setting": "[2]; untrained men and women", "result": "increasing fat oxidation"}]}
{"compound": "Cn1c(=O)c2c(ncn2C)n(C)c1=O", "note": "[caffeine, 3,7-dihydro-1,3,7-trimethyl-1H-purine-2,6-dione]", "values": [{"measurement": "weight loss", "setting": "[3]", "result": "Significant weight loss"}, {"measurement": "body fat", "setting": "[4]", "result": "generally reduced"}, {"measurement": "abdominal adipose tissue weight", "setting": "[4]; vs control group", "result": "significant decrease"}, {"measurement": "serum triglyceride levels", "setting": "[4]; vs control group", "result": "significant decrease"}]}
{"compound": "CCCCCCCCCCCC(C[C@@H]1OC(=O)[C@H]1CCCCCC)OC(=O)[C@H](CC(C)C)NC=O", "note": "(stereo partly drawn) [orlistat, N-formyl-L-leucine-1-[[(2S,3S)-3-hexyl-4oxo-2-oxetanyl]methyl]dodecyl ester]", "values": [{"measurement": "LDL cholesterol levels", "setting": "[5]; one year treatment", "result": "greater improvements then placebo"}, {"measurement": "total serum cholesterol", "setting": "[5]; one year treatment", "result": "greater improvements then placebo"}, {"measurement": "weight loss", "setting": "[5]; persons with type 2 diabetes", "result": "more significant weight loss then the placebo group"}, {"measurement": "tolerability", "setting": "[6]; 60 mg vs larger dose", "result": "generally better tolerated"}, {"measurement": "efficacy for weight loss relative to prescription dose", "setting": "[6]; OTC 60 mg vs prescription 120 mg", "result": "about 85%"}, {"measurement": "inhibition of absorption of ingested fats", "setting": "[6]; OTC dose 60 mg", "result": "about 25%"}, {"measurement": "average weight loss of initial body weight", "setting": "[6]; OTC dose 60 mg, over 16 weeks", "result": "about 5%"}]}
{"compound": "Cn1c(=O)c2[nH]cnc2n(C)c1=O", "note": "[theophylline, 3,7-dihydro-1,3-dimethyl-1H-purine-2,6-dione]", "values": [{"measurement": "body fat", "setting": "[4]", "result": "generally reduced"}]}
{"compound": "chromium polynicotinate", "values": [{"measurement": "body fat", "setting": "[7]", "result": "significant loss of body fat"}, {"measurement": "systolic blood pressure", "setting": "[8]; vs control groups", "result": "effective in lowering systolic blood pressure"}, {"measurement": "free radical damage in liver and kidney tissue", "setting": "[8]; vs controls", "result": "less free radical damage"}]}
